From US20030037354A1, “Animal model with disrupted Fgf14 gene” (priority 2001, published 2003)
Read-outs that look alike come from different tables or passages of the source.

Assays:
[1] = system: wildtype and Fgf14^N-βGal/N-βGal mice; assay: Locomotor activity response to stimulant drugs and dopamine receptor agonists; format: in vivo, mouse
Protocol: Locomotor activity. For the locomotor activity experiments, all mice were acclimated to the activity cages (28 cm long×17 cm wide×12.5 cm high) for one hour on two consecutive days. […] Mice were tested every other day and the order of drug treatment was counterbalanced across days within genotype groups. Locomotor activity was recorded every five minutes by two beams of red light placed at 10 and 19 cm along the length of the activity cage.
Statistical Analyses. The behavioral data were analyzed using analysis of variance (ANOVA) models typically containing one between-subjects variable (Genotype) and one within-subjects variable (e.g., Trials or Test Sessions). Subsequent one-way ANOVAs were used to evaluate main effects. Data from the experiments concerning drug effects on locomotor activity were analyzed by using a […] analysis of variance (ANOVA) with one between-subjects variable (Drug) being added to the above model. […] Alpha was set at p<0.05 for all analyses.

[2] = system: wildtype and Fgf14^N-βGal/N-βGal mice; assay: Cocaine-induced seizure activity with EEG recording; format: in vivo, mouse
Protocol: Surgical implantation of skull screw electrodes was performed with the mice positioned in a stereotaxic frame under halothane anesthesia. Using sterile technique, the scalp was incised at the midline and the periosteum was scraped free from the skull. Three burr holes were made with a high speed drill for placement of epidural screw electrodes. Two active electrodes were placed over the right and left frontal cortex approximately 1 mm posterior to the bregma. A reference electrode was implanted in the region over the frontal sinus. The electrodes and lead wires were stabilized to the skull with dental cement. The mice were allowed a three-day recovery period before recording. Reference EEG recordings from the right and left frontal regions were performed using a Grass P5 Series AC amplifier with high and low frequency filter settings at 100 and 1 Hz, respectively. The outputs of the amplifiers were digitized and stored using an analog-to-digital converter and Axoscope software.

[3] = system: wildtype and FGF14 deficient mice; assay: PTZ-induced seizure: latency to onset and time to death; format: in vivo, mouse; details: for time to death (mean duration): FGF14 (−/−) mice
Protocol: Time to onset of tonic-clonic seizure was recorded. In the first experiment (FIG. 9), the mean age was 82 days and the sex ratio was 50% male/female. In the second experiment, the mean age was 354 days and all animals were female.

extracellular dopamine = details: cited from earlier work
[4] = system: Dopamine D1 receptor deficient mice; details: cited from earlier work
[5] = Fgf14^N-βGal/N-βGal mice, 40 mg/kg

SMILES: Oc1cc2c(cc1O)C(c1ccccc1)CNCC2 (stereo not shown) [SKF38393]
- reduction in the locomotor activity induced by the D1R agonist ([1]; Fgf14^N-βGal/N-βGal mice compared to wildtype): 30%

SMILES: COC(=O)[C@H]1[C@@H](OC(=O)c2ccccc2)C[C@@H]2CC[C@H]1N2C [cocaine]
- EEG recording [2, 5]: epileptiform activity
- induction of seizures (behaviour) [2, 5]: brief tonic movements
- induction of seizures ([2]; both wildtype and FGF14 deficient mice, 80 mg/kg): tonic-clonic seizures
- induction of seizures ([2]; wildtype mice, 40 mg/kg): did not induce seizures

SMILES: C1CCc2nnnn2CC1 [PTZ, pentylenetetrazol]
- time to death (mean duration) ([3]; Experiment 1, 100 mg/kg IP, average age 82 days): about 4200 seconds
- time to death (mean duration) ([3]; Experiment 2, 75 mg/kg IP, average age 354 days): ~5700 s
- time to death after seizure onset ([3]; wild type mice): 15 to 20 s

SMILES: CC(N)Cc1ccccc1 (stereo not shown) [amphetamine]
- elevation of DA efflux above baseline (extracellular dopamine; 2 mg/kg): 350%
- elevation of DA efflux above baseline (extracellular dopamine; 4 mg/kg): 750%
- hyperactivity response relative to wildtype littermates ([1]; Fgf14^N-βGal/N-βGal mice, 2 and 4 mg/kg subcutaneous): significantly lower
- locomotor response ([4]; 2 mg/kg): non-responsive
- locomotor response ([4]; 5 mg/kg): decreased response
